One compound from patent US20160279187A1, “CALPAIN INHIBITORS FOR IBD AND COLORECTAL CANCER TREATMENT” (UNIVERSITY OF HAWAII, priority 2013, published 2016) can be followed below.

The test system of experiment [1] is IκB / NFκB in HT-29 cells. Briefly: IκB and nuclear NFκB western blot, HT-29. The experiment is classed as cell-based, human. As to conditions: HT-29, vs DMSO. How it is done: Bone marrow derived macrophages (BMDM) were prepared as previously described by methods known to those skilled in the art. On day 5 of culture, 2×10^6 BMDM were seeded in 6-well plates and the following day were primed for 18 h with TNFα (20 ng/mL), followed by 1 h stimulation with E. faecalis (1 μg/mL; ATCC). Stimulation with E. faecalis was conducted in the presence of the zLLY-CH2F calpain-2 inhibitor (20 μg/mL) or DMSO as a control. Media was removed from treated BMDM, centrifuged at 300×g for 5 min and supernatent analyzed using the Cytometric Bead Array Mouse Inflammation Kit (BD Biosciences, San Jose, Calif.). Cytokine data were analyzed using Flowjo software (Ashland, Oreg.) and GraphPad Prism version 4.0 (GraphPad, La Jolla, Calif.). Cell pellets were lysed and analyzed for IκB and NFκB by Western blot as previously described (Miyazaki, T. et al. Journal of Atherosclerosis and Thrombosis 20, 228-237, 2013). […] Each day 4 wells were quantified using Celltiter MTS reagent (Promega) and the resulting signal was used to generate a proliferation curve. Calpain activity was measured using a Calpain activity assay kit (BioVision, Inc., Milpitas, Calif.) as previously described. Colons were harvested on day 4 and calpain activity measured. […]

For experiment [2], the system named is Akt phosphorylation / FAK cleavage in macrophages. Briefly: other m-calpain regulated pathways in macrophages (Akt, FAK). The class given is cell-based.
Experiment [3] concerns IκB / NFκB in TNFα primed macrophages. Briefly: IκB and nuclear NFκB western blot in activated macrophages. As to conditions: vs DMSO. The class given is cell-based, mouse. As to the method: Bone marrow derived macrophages (BMDM) were prepared as previously described by methods known to those skilled in the art. On day 5 of culture, 2×10^6 BMDM were seeded in 6-well plates and the following day were primed for 18 h with TNFα (20 ng/mL), followed by 1 h stimulation with E. faecalis (1 μg/mL; ATCC). Stimulation with E. faecalis was conducted in the presence of the zLLY-CH2F calpain-2 inhibitor (20 μg/mL) or DMSO as a control. Media was removed from treated BMDM, centrifuged at 300×g for 5 min and supernatent analyzed using the Cytometric Bead Array Mouse Inflammation Kit (BD Biosciences, San Jose, Calif.). Cytokine data were analyzed using Flowjo software (Ashland, Oreg.) and GraphPad Prism version 4.0 (GraphPad, La Jolla, Calif.). Cell pellets were lysed and analyzed for IκB and NFκB by Western blot as previously described (Miyazaki, T. et al. Journal of Atherosclerosis and Thrombosis 20, 228-237, 2013). […] Each day 4 wells were quantified using Celltiter MTS reagent (Promega) and the resulting signal was used to generate a proliferation curve. Calpain activity was measured using a Calpain activity assay kit (BioVision, Inc., Milpitas, Calif.) as previously described. Colons were harvested on day 4 and calpain activity measured. […] Supernatants were evaluated for a panel of cytokines including IFNγ, TNFα, IL-6, and MCP-1, IL-10, and IL-12. […]
(In general: Immunoblotting shows a protein as a band on a membrane.)

Where a SMILES comes first, the peptide text is derived from it. The star is where a group is joined. Cbz = O=C(OCc1ccccc1)*; CH2F = FC*

With `CC(C)C[C@H](NC(=O)OCc1ccccc1)C(=O)N[C@@H](CC(C)C)C(=O)N[C@@H](Cc1ccc(O)cc1)C(=O)CF` [zLLY-CH2F, Z-LLY-CH2F] (Cbz-Leu-Leu-Tyr-CH2F), in experiment [1], the IκB degradation entry was “reduced” and the NFκB nuclear localization result is given as “reduced”. In experiment [2], the FAK cleavage entry is reported as “major effect” and the “phosphorylation of Akt” value is reported as “inhibited”. Besides, in experiment [3], the IκB degradation result was “decreased” and the “NFκB localization to the nucleus” value is “decreased”.
